Data taken from patent US20240092768A1, “CRYSTAL FORM OF ANTI-INFLUENZA VIRUS COMPOUND, PREPARATION METHOD FOR CRYSTAL FORM, AND USE OF CRYSTAL FORM” (XIZANG HAISCO PHARMACEUTICAL CO., LTD., priority 2021, published 2024).

What was measured:
[1] = experiment of crystal form transformation in water; assay type: physicochemical; conditions: room temperature, stirring of magma for 7 days, XRPD
[2] = hygroscopicity experiment, dynamic vapor sorption (DVS); assay type: physicochemical; conditions: 25° C.
[3] = system: IFVA/Mal/302/54; assay: cytopathic effect (CPE) antiviral assay in MDCK cells, IFVA/Mal/302/54; assay type: cell-based, influenza viruses; conditions: 120 h, CPE method, 5 days, CCK-8 cell viability
[4] = system: IFVA/Weiss/43; assay: cytopathic effect (CPE) antiviral assay in MDCK cells, IFVA/Weiss/43; assay type: cell-based, influenza viruses; conditions: 120 h, CPE method, 5 days, CCK-8 cell viability
[5] = system: IFV A/PR/8/34; assay: cytopathic effect (CPE) antiviral assay in MDCK cells, IFV A/PR/8/34; assay type: cell-based, influenza viruses; conditions: 120 h, CPE method, 5 days, CCK-8 cell viability

With `Cc1nnn([C@@H](c2ccccc2)C2CCN(C(=O)c3cc(-c4nc5cc(NC(=O)[C@@H]6C[C@@H]6F)ccc5o4)ccn3)CC2)n1` [crystal form I, (1S,2S)-2-fluoro-N-(2-(2-(4-((R)-(5-methyl-2H-tetrazol-2-yl)(phenyl)methyl)piperidine-1-carbonyl)pyridin-4-yl)benzo[d]oxazol-5-yl)cyclopropane-1-carboxamide] the “crystal form after stirring of magma in water” value [1] was “remained unchanged after the magma” and the “weight change in a range of 0% RH to 80% RH” value [2] was “approximately 0.3%”.

Work on `Cc1nnn([C@@H](c2ccccc2)C2CCN(C(=O)c3cc(-c4nc5cc(NC(=O)[C@@H]6C[C@@H]6F)ccc5o4)ccn3)CC2)n1` [Compound A, (1S,2S)-2-fluoro-N-(2-(2-(4-((R)-(5-methyl-2H-tetrazol-2-yl)(phenyl)methyl)piperidine-1-carbonyl)pyridin-4-yl)benzo[d]oxazol-5-yl)cyclopropane-1-carboxamide] yielded an EC50 [3] of 14 nM, an EC50 [4] of 3 nM and an EC50 [5] of 12 nM. For the same molecule, the “weight change in a range of 0% RH to 80% RH” value ([2]; listed as amorphous form of the compound A) was “approximately 3.8%”.
